Values quoted from earlier work, collected in PMC6265740, “Biochemical and Anti-Triple Negative Metastatic Breast Tumor Cell Properties of Psammaplins” (Marine Drugs, 2018).

How the values were obtained:
SIRT1 = tested on: SIRT1; design: method as in PMID 25445714, PMID 27537898; conditions: breast tumor cells ref 36,37; cited from earlier work
MDA-MB-231 [1] = tested on: MDA-MB-231; design: method as in PMID 28574600; conditions: embryonic zebrafish, xenografts, and orthotopic tumor models ref 38; cited from earlier work
MDA-MB-231 [2] = tested on: MDA-MB-231; design: method as in PMID 28574600; conditions: in vitro ref 38; cited from earlier work

Row | SMILES | SIRT1 enzyme expression and activity (SIRT1) | MDA-MB-231 metastatic potential (MDA-MB-231 [1]) | MDA-MB-231 migration and angiogenesis (MDA-MB-231 [2])
1 | O=C(NCCSSCCNC(=O)/C(Cc1ccc(O)c(Br)c1)=N/O)/C(Cc1ccc(O)c(Br)c1)=N/O [Psammaplin A] | decreased SIRT1 enzyme expression and activity |  | 
2 | C=CCSSSCC=C [Garlic diallyl trisulfide, diallyl trisulfide] |  | suppress MDA-MB-231 metastatic potential | inhibited MDA-MB-231 migration and angiogenesis
